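Growth conditions: 96-well plates. Treatment: test compound, 48 hours, 5 concentrations. Analysis: linear interpolation between bracketing concentrations; unreached endpoints set to highest concentration. TGI denotes the concentration required for complete inhibition of growth.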
What was measured:
Test in all cases: inhibition of tumour cell growth, NCI panel, 48 h
[1] = tested on: 786-0 renal
[2] = tested on: A498 renal
[3] = tested on: A549 NSCLC
[4] = tested on: ACHN renal
[5] = tested on: CAKI-1 renal
[6] = tested on: CCRF-CEM leukemia
[7] = tested on: COLO 205 colon
[8] = tested on: DLD-1 colon
[9] = tested on: DMS 114 small cell lung
[10] = tested on: DMS 273 small cell lung
[11] = tested on: EKVX NSCLC
[12] = tested on: HCC-2998 colon
[13] = tested on: HCT-116 colon
[14] = tested on: HCT-15 colon
[15] = tested on: HL-60(TB) leukemia
[16] = tested on: HOP-62 NSCLC
[17] = tested on: HOP-92 NSCLC
[18] = tested on: HT29 colon
[19] = tested on: IGROV1 ovarian
[20] = tested on: K-562 leukemia
[21] = tested on: KM12 colon
[22] = tested on: KM20L2 colon
[23] = tested on: LOX IMVI melanoma
[24] = tested on: LXFL 529 NSCLC
[25] = tested on: M14 melanoma
[26] = tested on: M19-MEL melanoma
[27] = tested on: MALME-3M melanoma
[28] = tested on: MOLT-4 leukemia
[29] = tested on: NCI-H226 lung
[30] = tested on: NCI-H23 lung
[31] = tested on: NCI-H460 lung
[32] = tested on: NCI-H522 lung
[33] = tested on: OVCAR-3 ovarian
[34] = tested on: OVCAR-4 ovarian
[35] = tested on: OVCAR-5 ovarian
[36] = tested on: RPMI-8226 leukemia
[37] = tested on: RXF 393 renal
[38] = tested on: RXF-631 renal
[39] = tested on: SF-268 CNS
[40] = tested on: SF-295 CNS
[41] = tested on: SF-539 CNS
[42] = tested on: SK-MEL-2 melanoma
[43] = tested on: SK-MEL-5 melanoma
[44] = tested on: SK-OV-3 ovarian
[45] = tested on: SN12C renal
[46] = tested on: SNB-19 CNS
[47] = tested on: SNB-75 CNS
[48] = tested on: SNB-78 CNS
[49] = tested on: SR leukemia
[50] = tested on: SW-620 colon
[51] = tested on: TK-10 renal
[52] = tested on: U251 CNS
[53] = tested on: UO-31 renal
[54] = tested on: XF 498 CNS
[55] = tested on: HOP-18 NSCLC
[56] = tested on: OVCAR-8 ovarian
[57] = tested on: UACC-257 melanoma
[58] = tested on: UACC-62 melanoma
[59] = tested on: SK-MEL-28 melanoma

## CCOC(=O)CCC(NC(=O)c1ccc(NCc2ccc3nc(-c4ccccc4)c(Cl)nc3c2)cc1)C(=O)OCC (stereo not drawn)
[1]
  TGI: > 100 µM
[2]
  TGI: 78.6 µM
[3]
  TGI: > 100 µM
[4]
  TGI: > 100 µM
[5]
  TGI: > 100 µM
[6]
  TGI: > 100 µM
[7]
  TGI: 41.7 µM
[8]
  TGI: > 100 µM
[9]
  TGI: > 100 µM
[10]
  TGI: > 100 µM
[11]
  TGI: > 100 µM
[12]
  TGI: > 100 µM
[13]
  TGI: > 100 µM
[14]
  TGI: > 100 µM
[15]
  TGI: > 100 µM
[16]
  TGI: > 100 µM
[17]
  TGI: 27.3 µM
[18]
  TGI: > 100 µM
[19]
  TGI: > 100 µM
[20]
  TGI: > 100 µM
[21]
  TGI: > 100 µM
[22]
  TGI: > 100 µM
[23]
  TGI: > 100 µM
[24]
  TGI: > 100 µM
[25]
  TGI: 39.5 µM
[26]
  TGI: 43.2 µM
[27]
  TGI: 26 µM
[28]
  TGI: 44.9 µM
[29]
  TGI: > 100 µM
[30]
  TGI: > 100 µM
[31]
  TGI: > 100 µM
[32]
  TGI: 57.8 µM
[33]
  TGI: 59.2 µM
[34]
  TGI: 90.6 µM
[35]
  TGI: > 100 µM
[36]
  TGI: 81.2 µM
[37]
  TGI: > 100 µM
[38]
  TGI: 70.3 µM
[39]
  TGI: > 100 µM
[40]
  TGI: > 100 µM
[41]
  TGI: > 100 µM
[42]
  TGI: 25.9 µM
[43]
  TGI: 23.7 µM
[44]
  TGI: > 100 µM
[45]
  TGI: > 100 µM
[46]
  TGI: > 100 µM
[47]
  TGI: > 100 µM
[48]
  TGI: > 100 µM
[49]
  TGI: > 100 µM
[50]
  TGI: > 100 µM
[51]
  TGI: > 100 µM
[52]
  TGI: > 100 µM
[53]
  TGI: 65.8 µM
[54]
  TGI: 20.4 µM

## CC1CCC(C(C)(C)c2ccccc2)C(=O)C1 (stereo not drawn)
[1]
  TGI: > 100 µM
[2]
  TGI: > 100 µM
[3]
  TGI: > 100 µM
[4]
  TGI: > 100 µM
[5]
  TGI: > 100 µM
[6]
  TGI: > 100 µM
[7]
  TGI: > 100 µM
[8]
  TGI: > 100 µM
[9]
  TGI: > 100 µM
[10]
  TGI: > 100 µM
[11]
  TGI: > 100 µM
[12]
  TGI: > 100 µM
[13]
  TGI: > 100 µM
[14]
  TGI: > 100 µM
[15]
  TGI: > 100 µM
[55]
  TGI: > 100 µM
[16]
  TGI: > 100 µM
[17]
  TGI: > 100 µM
[18]
  TGI: > 100 µM
[19]
  TGI: > 100 µM
[20]
  TGI: > 100 µM
[21]
  TGI: > 100 µM
[22]
  TGI: > 100 µM
[23]
  TGI: > 100 µM
[24]
  TGI: > 100 µM
[25]
  TGI: > 100 µM
[26]
  TGI: > 100 µM
[27]
  TGI: > 100 µM
[28]
  TGI: > 100 µM
[31]
  TGI: > 100 µM
[33]
  TGI: > 100 µM
[34]
  TGI: > 100 µM
[35]
  TGI: > 100 µM
[56]
  TGI: > 100 µM
[36]
  TGI: > 100 µM
[39]
  TGI: > 100 µM
[40]
  TGI: > 100 µM
[41]
  TGI: > 100 µM
[42]
  TGI: > 100 µM
[43]
  TGI: > 100 µM
[44]
  TGI: > 100 µM
[45]
  TGI: > 100 µM
[46]
  TGI: > 100 µM
[47]
  TGI: > 100 µM
[48]
  TGI: > 100 µM
[50]
  TGI: > 100 µM
[51]
  TGI: > 100 µM
[52]
  TGI: > 100 µM
[57]
  TGI: > 100 µM
[58]
  TGI: > 100 µM
[53]
  TGI: > 100 µM
[54]
  TGI: > 100 µM

## CC(=O)OCCOCNC(=S)N/N=C/c1ccc([N+](=O)[O-])s1
[1]
  TGI: > 100 µM
[2]
  TGI: > 100 µM
[3]
  TGI: > 100 µM
[4]
  TGI: > 100 µM
[6]
  TGI: > 100 µM
[7]
  TGI: 4.61 µM
[8]
  TGI: > 100 µM
[9]
  TGI: 26.4 µM
[10]
  TGI: 85.2 µM
[11]
  TGI: > 100 µM
[12]
  TGI: > 100 µM
[13]
  TGI: 54 µM
[14]
  TGI: > 100 µM
[15]
  TGI: 11.5 µM
[55]
  TGI: > 100 µM
[16]
  TGI: > 100 µM
[17]
  TGI: > 100 µM
[18]
  TGI: > 100 µM
[19]
  TGI: > 100 µM
[20]
  TGI: > 100 µM
[21]
  TGI: > 100 µM
[22]
  TGI: > 100 µM
[23]
  TGI: > 100 µM
[24]
  TGI: > 100 µM
[25]
  TGI: > 100 µM
[26]
  TGI: 34.1 µM
[27]
  TGI: > 100 µM
[28]
  TGI: > 100 µM
[29]
  TGI: > 100 µM
[30]
  TGI: 43.1 µM
[31]
  TGI: > 100 µM
[32]
  TGI: 24.5 µM
[33]
  TGI: > 100 µM
[34]
  TGI: > 100 µM
[35]
  TGI: > 100 µM
[56]
  TGI: > 100 µM
[36]
  TGI: > 100 µM
[37]
  TGI: > 100 µM
[39]
  TGI: > 100 µM
[40]
  TGI: > 100 µM
[41]
  TGI: > 100 µM
[42]
  TGI: > 100 µM
[59]
  TGI: > 100 µM
[43]
  TGI: 81.7 µM
[44]
  TGI: > 100 µM
[45]
  TGI: > 100 µM
[46]
  TGI: > 100 µM
[47]
  TGI: > 100 µM
[48]
  TGI: > 100 µM
[49]
  TGI: > 100 µM
[50]
  TGI: > 100 µM
[51]
  TGI: > 100 µM
[52]
  TGI: > 100 µM
[57]
  TGI: 66.7 µM
[58]
  TGI: > 100 µM
[53]
  TGI: > 100 µM
[54]
  TGI: > 100 µM

— PubChem BioAssay (NCI)
